One substance from patent US20020123077A1, “Novel compounds capable of modulating biofilms” (priority 2000, published 2002) can be followed below.

The assay relates to P. aeruginosa PA14. Put plainly: Potentiation of gentamycin on pre-formed biofilm. As to conditions: 9 hr biofilm, M63 + arginine; BIF ~1 μM, Gm 0.1 mg/ml; 14 hours of incubation. The assay is classed as cell-based, Pseudomonas aeruginosa. The method, then:
FIG. 10 is a bar graph showing the ability of purified BIF to potentiate the activity of gentamycin (Gm). A biofilm of P. aeruginosa PA14 was pre-formed by growing the bacteria for 9 hrs in minimal M63 medium supplemented with arginine (0.4%) in 96 well dishes (100 μl of medium per well). After 9 hrs, half of the media was removed and replaced with fresh medium containing Gm (0.1 mg/ml final concentration), BIF (˜1 μM final concentration), or both compounds. The biofilm was quantitated after an additional 14 hrs of incubation.
We predicted that addition of purified BIF might potentiate the effects of antimicrobial compounds. To test this hypothesis, we pre-formed a biofilm of P. aeruginosa by growing the bacteria for 9 hrs by growth in minimal M63 medium supplemented with arginine (0.4%) in 96 well dishes. The preformed biofilms were then treated with BIF alone or BIF plus gentamycin (Gm) at 0.1 mg/ml final concentration. At the concentrations tested, BIF (˜1 μM) and Gm (0.1 mg/ml) had no effect on pre-formed biofilms of P. aeruginosa when these compounds were used individually (FIG. 10).

gentamycin [Gm]: the “effect on pre-formed biofilms of P. aeruginosa” value was “no effect”.
